Source: patent publication US12721861B2, “Delivery and retention of active agents within the skin” (Fount Bio, Inc., priority 2019, dated 2026)
Entries after “also recorded” stand apart in the source; their conditions may differ.

Key:
[1] = test system: 3D reconstructed epidermis model (Epiderm tissue, Epi-200); assay: Skin irritation test (OECD TG 439, EPI-200-SIT), MTT viability; assay type: cell-based, human; details: for reduction in cell viability in the skin tissue: 1 h exposure, MTT, relative to PBS, SDS 5%, HA-CBT 20 and 2 mg/mL, gly-CBT 1 and 0.1 mg/mL
Procedure: To evaluate the biocompatibility of CBT functionalized molecules, a skin irritation study was conducted using a 3D reconstructed epidermis model supplied by Mattek. The skin irritation test was conducted following the OECD TG 439 protocol as a basis. Upon receiving the Epiderm™ tissue (Epi-200) from Mattek, the tissue inserts were removed from agarose and incubated in 0.9 mL of media in 6 well plates for 1 h at 37° C. The tissue inserts were then transferred to new wells containing 0.9 mL of fresh media, and incubated overnight for 18 h at 37° C. 30 μL of PBS, HA-CBT (20 mg/mL and 2 mg/mL in PBS), gly-CBT (1 mg/mL and 0.1 mg/mL), and SDS (5 wt %) was applied and spread on the top of 3 independent tissue inserts each. After incubation at 37° C. for 1 h, the formulations were pipetted out and the tissue inserts were washed three times with PBS. The tissue inserts were then incubated in fresh media for 24 h at 37° C. The media was then exchanged with fresh media, and the inserts were incubated for an additional 18 h at 37° C. Following incubation, the viability of the tissue was assessed using the MTT assay, discussed in detail in a protocol established by Mattek (EPI-200-SIT).

[2] = Penetration of gly-CBT in 3D human skin model (EpiDerm), absorbance at 326 nm and microscopy; assay type: in vitro ADME
Procedure: The penetration and interactions of gly-CBT in human skin was assessed using a 3D human skin model (Mattek EpiDerm™). After allowing the skin tissues to equilibrate with media for 1 h at 37° C. in 6 well plates, the media was replaced with PBS and 100 μL of PBS and gly-CBT (1 mg/mL) were applied on top of 4 skin tissues each. Following 6 h incubation, a single tissue from each group was flash frozen in OCT for cryosectioning and microscopy. For the remaining samples, the liquid which remained on top of the tissue inserts (~100 μL) and the liquid in the acceptor solution (900 μL) was collected. The top of the tissue inserts were then washed 2× with PBS and then the inserts were submerged into 2 mL of a 1:1 PBS:MeOH solution to extract molecules which penetrated the skin. After performing the extraction for 2 h at 37° C., the concentration of gly-CBT was measured in the donor, acceptor, and extract solutions by reading the absorbance at 326 nm with a plate reader. The remaining tissue insert was cryosectioned and imaged using fluorescent microscopy as described in Example 1.

[3] = Skin penetration on porcine skin, fluorescence microscopy of cryosections; assay type: in vitro ADME
Procedure: Frozen, porcine skin was allowed to equilibrate to room temperature, and then cut into ~2×2 cm squares and placed into 0.9 mL of PBS in a 6 well plate. 25 μL of HA-CBT (10 mg/mL in PBS), gly-CBT (1 mg/mL in PBS), and PBS were gently spread on porcine skin to a 1 cm circle with a metal spatula. After spreading the formulations, the 6 well plate was placed into a humidified incubator at 37° C. for 18 h.
A small region in the center of the application area was then excised using a surgical scalpel, and placed into OCT in a biopsy mold. The tissue was snap frozen by placing the biopsy mold directly into a methylpentane, dry ice slurry. The tissue was then sectioned on a cryostat microtome to 20 μm sections. A drop of ProLong Gold was placed on each section and covered with a coverslip prior to imaging. Images were taken on a ZeissAxioPlan2 using a 10× objective and a DAPI filter to visualize the location of CBT.

[4] = Distribution of chemical species in EpiDerm tissue by HPLC with sequential extractions; assay type: in vitro ADME, human
Procedure: To further study the penetration of gly-CBT within human skin tissue, HPLC was used to quantify the distribution of different chemical species after application of gly-CBT and gly-aminoLuciferin (gly-Luc) into EpiDerm™ tissue. As described above, 100 μL of gly-CBT and gly-Luc was applied on the top of the skin tissue. Following 6 h incubation, the donor and acceptor solutions were collected and the chemical species which penetrated the skin were attempted to be extracted with 1:1 MeOH:PBS. Following the first extraction protocol, the tissue inserts were rinsed with PBS and imaged in a dark room by exposing with a UV254 lamp. Following the imaging, further extractions were carried out sequentially with 1.0% Triton X-100, acidified MeOH (0.1% TFA), and DCM. Neither of the later extractions were successful in extracting out any additional CBT species.

applied gly-CBT extracted from within the Epiderm tissue ([2]; 1:1 PBS:MeOH extraction 2 h at 37 °C) | total gly-CBT detected after extraction and in donor and acceptor solutions ([2]; 6 h incubation, 1:1 PBS:MeOH extraction) | fraction of the penetrated amount that appeared in the acceptor compartment ([2]; EpiDerm, 6 hours) | fraction of the penetrated amount that remained in the skin ([2]; EpiDerm, 6 hours) | applied dose that penetrated the skin ([2]; EpiDerm, within 6 hours) | fluorescent signal within the tissue by microscopy ([2]; after 6 h application, cryosection) | applied gly-CBT remaining on the surface of the epiderm tissue ([2]; after 6 h incubation, 1 mg/mL, absorbance 326 nm) | extraction of gly-CBT from porcine skin [3] | fluorescence signal in the dermis ([3]; 18 h at 37 °C, DAPI filter) | fluorescence within the stratum corneum and epidermis ([3]; 18 h at 37 °C, DAPI filter, HA-CBT 10 mg/mL, gly-CBT 1 mg/mL in PBS) | fluorescence of tissue insert under UV lamp ([4]; after first extraction process and washing step) | SMILES | reduction in cell viability in the skin tissue [1] | irritation classification ([1]; EPI-200-SIT, relative viability greater than 50% = non-irritant) | extractability from the tissue with Triton X-100, acidified methanol and dichloromethane ([4]; sequential extractions after 1:1 MeOH:PBS)
 |  |  |  |  |  |  |  |  |  |  | CCCCCCCCCCCCOS(=O)(=O)[O-].[Na+] [SDS, reference compound] | ~100% |  | 
~ 10% | ~ 50% | about ⅓ | ⅔ | about 75% | significant fluorescent signal | ~ 25% | inability to extract | lower signal | High fluorescence | extremely fluorescent | N#Cc1nc2ccc(NC(=O)CN)cc2s1 [gly-CBT] | neither gly-CBT nor HA-CBT showed any reduction | non-irritants | unable to be extracted; also recorded: could not be removed
